Here are results for 25 molecules from US9745289B2, “Aldosterone synthase inhibitors” (Boehringer Ingelheim International GmbH, priority 2014, dated 2017).

pIC50: −log10 of the molar value.

The target of this assay is cortisol synthase (CYP11B1) (Macaca fascicularis, UniProt A0A2K5ULY1). The experiment in a line: Inhibition of Cortisol Synthesis. It counts as biochemical, cynomolgus monkey. The conditions noted are these: cynomolgus adrenal gland mitochondria; 150 units of CYP11B1, 11-deoxycortisol as substrate, cortisol measured as product. Here is the method: The aldosterone synthase and cortisol synthase inhibition assays employ cynomolgus adrenal gland mitochondria as the source of aldosterone synthase (CYP11B2) and cortisol synthase (CYP11B1). […] Activity of CYP11B2 and CYP11B1 in these preparations is defined as the amount of enzyme that generates 1 pmol of product in one hour under the conditions described.
Assays are performed in 96-well format in a final volume of 60 μL/well, containing 100 mM potassium phosphate, pH 7.4, 1% (v/v) DMSO, and additionally, 2 μM of corticosterone and 50 units of CYP11B2 activity. Reactions are started by the addition of NADPH to 1 mM and allowed to proceed for 90 minutes at 37° C. Reactions are terminated by the addition of 60 μL of MeCN containing an internal standard for mass spectrometry. One hundred microliters are then transferred to a glass filter plate and centrifuged at 570×g for 5 minutes and the filtrate is collected. Reaction product aldosterone is quantified by mass spectrometry. To determine the assay blank value (0% activity), NADPH is omitted from some reactions.
Dose dependent inhibition is quantified by the inclusion of compound at various concentrations. Maximum activity (100%) is defined by reactions containing NADPH, but without compound.
Assays are performed as for aldosterone synthase except for the use of 150 units of CYP11B1, 11-deoxycortisol as substrate and cortisol measured as product.
On to `CS(=O)(=O)Cc1cncc(C2COc3c(C#N)cccc3O2)c1` (single isomer, unassigned) [Cpd 37A, 2-(5-Methanesulfonylmethyl-pyridin-3-yl)-2,3-dihydro-benzo[1,4]dioxine-5-carbonitrile], for which the pIC50 (commonly −log10 of the IC50, conventionally taken in molar units) is 4.60. In the case of `NC(=O)c1cccc2c1OCC(c1cncc3c1CCC3O)O2` (single isomer, unassigned) [Cpd 52BA, 2-(7-Hydroxy-6,7-dihydro-5H-[2]pyrindin-4-yl)-2,3-dihydro-benzo[1,4]dioxine-5-carboxylic acid amide] it was 4.80; in that of `Cc1cncc(C2COc3c(cccc3C(N)=O)O2)c1` (single isomer, unassigned) [Cpd 59B, 2-(5-Methyl-pyridin-3-yl)-2,3-dihydro-benzo[1,4]dioxine-5-carboxylic acid amide], 6.05; in that of `NC(=O)c1cccc2c1OCC(c1cncc(C3(O)CCC3)c1)O2` (single isomer, unassigned) [Cpd 26A, 2-[5-(1-Hydroxy-cyclobutyl)-pyridin-3-yl]-2,3-dihydro-benzo[1,4]dioxine-5-carboxylic acid amide], 5.74.

As to `N#Cc1cccc2c1OCC(c1cncc(-c3ccc(S(N)(=O)=O)cc3)c1)O2` (single isomer, unassigned) [Cpd 40B, 4-[5-(5-Cyano-2,3-dihydro-benzo[1,4]dioxin-2-yl)-pyridin-3-yl]-benzenesulfonamide], the pIC50 was 4.96. `NC(=O)c1cccc2c1OCC(c1cncc(C(F)F)c1)O2` (single isomer, unassigned) [Cpd 22A, 2-(5-Difluoromethyl-pyridin-3-yl)-2,3-dihydro-benzo[1,4]dioxlne-5-carboxylic acid amide] gave a pIC50 of 5.70. In the case of `CC(C)(O)c1c(F)cncc1C1COc2c(cccc2C(N)=O)O1` (single isomer, unassigned) [Cpd 58A, 2-[5-Fluoro-4-(1-hydroxy-1-methyl-ethyl)-pyridin-3-yl]-2,3-dihydro-benzo[1,4]dioxine-5-carboxylic acid amide] it was 4.64; in that of `NC(=O)c1cccc2c1OCC(c1cncc(C(F)F)c1)O2` (single isomer, unassigned) [Cpd 22B, 2-(5-Difluoromethyl-pyridin-3-yl)-2,3-dihydro-benzo[1,4]dioxlne-5-carboxylic acid amide], 5.64. In the case of `CC(=O)N1CCC(Oc2cncc(C3COc4c(cccc4C(N)=O)O3)c2)CC1` (single isomer, unassigned) [Cpd 12A, 2-[5-(1-Acetyl-piperidin-4-yloxy)-pyridin-3-yl]-2,3-dihydro-benzo[1,4]dioxine-5-carboxylic acid amide] it was 4.74; in that of `NC(=O)c1cccc2c1OCC(c1cncc(CC(=O)N3CCOCC3)c1)O2` (single isomer, unassigned) [Cpd 13B, 2-[5-(2-Morpholin-4-yl-2-oxo-ethyl)-pyridin-3-yl]-2,3-dihydro-benzo[1,4]dioxine-5-carboxylic acid amide], 4.18; in that of `NC(=O)c1cccc2c1OCC(c1cncc(C3(F)CCOCC3)c1)O2` (single isomer, unassigned) [Cpd 32A, 2-[5-(4-Fluoro-tetrahydro-pyran-4-yl)-pyridin-3-yl]-2,3-dihydro-benzo[1,4]dioxine-5-carboxylic acid amide], 5.22.

The molecule `Cc1c(C#N)cncc1C1COc2c(cccc2C(N)=O)O1` (single isomer, unassigned) [Cpd 61B, 2-(5-cyano-4-methyl-pyridin-3-yl)-2,3-dihydro-benzo[1,4]dioxine-5-carboxylic acid amide] gave a pIC50 of 4.66.

For `CN(C)C(=O)Cc1cncc(C2COc3c(cccc3C(N)=O)O2)c1` (single isomer, unassigned) [Cpd 29A, 2-[5-[2-(Dimethylamino)-2-oxo-ethyl]-3-pyridyl]-2,3-dihydro-1,4-benzodioxine-5-carboxamide], the pIC50 was 4.66. For `NC(=O)c1cccc2c1OCC(c1cncc(OC3CCOCC3)c1)O2` (single isomer, unassigned) [Cpd 47A, 2-[5-(Tetrahydro-pyran-4-yloxy)-pyridin-3-yl]-2,3-dihydro-benzo[1,4]dioxine-5-carboxylic acid amide], the pIC50 is 5.07.

`N#Cc1cccc2c1OCC(c1cncc(CC(=O)N3CC[C@@H](O)C3)c1)O2` (single isomer, unassigned) [Cpd 55A]: the pIC50 was 4.96. Next, `NC(=O)c1cccc2c1OCC(c1cncc(CN3CCCCS3(=O)=O)c1)O2` (single isomer, unassigned) [Cpd 3A, 2-[5-(1,1-Dioxo-1λ^6,-[1,2]thiazinan-2-ylmethyl)-pyridin-3-yl]-2,3-dihydro-benzo[1,4]dioxine-5-carboxylic acid amide]: under 4.52; `CCS(=O)(=O)NCc1cncc(C2COc3c(C#N)cccc3O2)c1` (single isomer, unassigned) [Cpd 54B, Ethanesulfonic acid [5-(5-cyano-2,3-dihydro-benzo[1,4]dioxin-2-yl)-pyridin-3-ylmethyl]-amide]: 4.85. In the case of `NC(=O)c1cccc2c1OCC(c1cncc(C3(O)CCCCC3)c1)O2` (single isomer, unassigned) [Cpd 11B, 2-[5-(1-Hydroxy-cyclohexyl)-pyridin-3-yl]-2,3-dihydro-benzo[1,4]dioxine-5-carboxylic acid amide] it was 5.36; in that of `CC(=O)N1CCC(Oc2cncc(C3COc4c(C#N)cccc4O3)c2)CC1` (single isomer, unassigned) [Cpd 38A, 2-[5-(1-Acetyl-piperidin-4-yloxy)-pyridin-3-yl]-2,3-dihydro-benzo[1,4]dioxine-5-carbonitrile], 4.82. Molecule `CC(C)(O)c1c(F)cncc1C1COc2c(cccc2C(N)=O)O1` (single isomer, unassigned) [Cpd 58B, 2-[5-Fluoro-4-(1-hydroxy-1-methyl-ethyl)-pyridin-3-yl]-2,3-dihydro-benzo[1,4]dioxine-5-carboxylic acid amide] gave a pIC50 of 5.52.

`NC(=O)c1cccc2c1OCC(c1cncc(O[C@@H]3CCOC3)c1)O2` (single isomer, unassigned) [Cpd 46B] had a pIC50 of 5.38.

In the case of `CC(=O)N1CC(Oc2cncc(C3COc4c(cccc4C(N)=O)O3)c2)C1` (single isomer, unassigned) [Cpd 19A, 2-[5-(1-Acetyl-azetidin-3-yloxy)-pyridin-3-yl]-2,3-dihydro-benzo[1,4]dioxine-5-carboxylic acid amide], the negative-log IC50 (pIC50) is under 4.52. Next, `NC(=O)c1cccc2c1OCC(c1cncc(CN3CCCCS3(=O)=O)c1)O2` (single isomer, unassigned) [Cpd 3B, 2-[5-(1,1-Dioxo-1λ^6,-[1,2]thiazinan-2-ylmethyl)-pyridin-3-yl]-2,3-dihydro-benzo[1,4]dioxine-5-carboxylic acid amide]: 5.25.

In turn, `CCOc1cncc(C2COc3c(cccc3C(N)=O)O2)c1` (single isomer, unassigned) [Cpd 45A, 2-(5-ethoxy-pyridin-3-yl)-2,3-dihydro-benzo[1,4]dioxine-5-carboxylic acid amide] gave a pIC50 of 6.68. Against the preceding molecule, the pIC50 is 1.43 log units higher. Take `N#Cc1cccc2c1OCC(c1cncc(CC(=O)N3CCOCC3)c1)O2` (single isomer, unassigned) [Cpd 43B, 2-[5-(2-Morpholin-4-yl-2-oxo-ethyl)-pyridin-3-yl]-2,3-dihydro-benzo[1,4]dioxine-5-carbonitrile]: the negative logarithm of the IC50 (pIC50) was under 4.52.
